Assay results published in ChEMBL document CHEMBL4483862, “Open-source discovery of chemical leads for next-generation chemoprotective antimalarials” (2018).

System: Plasmodium berghei
Assay: Luciferase/luciferin-expressing antifolate-resistant parasites were used to infect a culture of HepG2 cells that were pre-incubated with compounds. Infected hepatocytes emit light due to the luciferase reaction. Assay results are presented as the percent inhibition of light emission compared to control. […]
Assay type: functional
Details: sporozoite; for IC90: read-out: LUCIFERASE INFECTION ASSAY - IC90
[1] = PBLUC_HILL_SLOPE 2.05, PBLUC_R_SQUARED 0.76, read-out: LUCIFERASE INFECTION ASSAY - IC50

Compound	IC90 [µM]	other results
CN(C)c1cccc(-c2cnc3cnc(-c4ccncc4)cn23)c1	> 10.5	IC50 (PBLUC_HILL_SLOPE 2.07, PBLUC_R_SQUARED 0.374, read-out: LUCIFERASE INFECTION ASSAY - IC50): 6.53 µM
Fc1ccc(/C=N/n2c(-c3ccc(Cl)cc3)cs/c2=N\CC2CCCO2)cc1 (configuration not stated)	> 10	IC50 (PBLUC_HILL_SLOPE 2, PBLUC_R_SQUARED 0.363, read-out: LUCIFERASE INFECTION ASSAY - IC50): 5.58 µM
Cc1noc(C)c1S(=O)(=O)N1CCCN(C(=O)c2cc3c(s2)-c2ccccc2CC3)CC1	> 10	IC50 (PBLUC_HILL_SLOPE 2.04, PBLUC_R_SQUARED 0.622, read-out: LUCIFERASE INFECTION ASSAY - IC50): 4.56 µM
COc1ccc(-c2nnc(SC(C)C(=O)NC(C)c3ccc(Cl)cc3Cl)[nH]2)cc1 (configuration not stated)	> 10	IC50 (PBLUC_HILL_SLOPE 2.09, PBLUC_R_SQUARED 0.0748, read-out: LUCIFERASE INFECTION ASSAY - IC50): 5.53 µM
CN(C)Cc1ccc(-c2ccccc2CNC(=O)CC2CC3CCC2C3)cc1 (configuration not stated)	> 10	IC50 (PBLUC_HILL_SLOPE 2, PBLUC_R_SQUARED 0.172, read-out: LUCIFERASE INFECTION ASSAY - IC50): > 10 µM
Cc1cc(NC(=O)N2CCN(Cc3cccc4ccccc34)CC2)no1	> 10	IC50 (PBLUC_HILL_SLOPE 2.02, PBLUC_R_SQUARED 0.015, read-out: LUCIFERASE INFECTION ASSAY - IC50): > 10 µM
CCN(Cc1ccc2c(c1)OCO2)C(=O)/C=C/c1c(C)nc2sc(C)cn12	> 10	IC50 (PBLUC_HILL_SLOPE 2.08, PBLUC_R_SQUARED 0.691, read-out: LUCIFERASE INFECTION ASSAY - IC50): 8.61 µM
Cc1ccc(NC2c3ccccc3-c3ccccc32)cc1	> 10	IC50 (PBLUC_HILL_SLOPE 2, PBLUC_R_SQUARED 0.71, read-out: LUCIFERASE INFECTION ASSAY - IC50): 6.95 µM
Cc1cc(C)cc(NC(=O)c2cc(C(C)(C)C)n(-c3ccccc3)c2C)c1	5.09	IC50 [1]: 1.74 µM
Cc1c(C(=O)Nc2nc3c(C)cccc3s2)[nH]c2c1C(=O)CCC2	> 10	IC50 (PBLUC_HILL_SLOPE 2.07, PBLUC_R_SQUARED 0.0587, read-out: LUCIFERASE INFECTION ASSAY - IC50): 5.05 µM
Cc1nc(C2CC2)nc2sc(-c3nc(-c4cccs4)no3)c(N)c12	> 10	IC50 (PBLUC_HILL_SLOPE 2.09, PBLUC_R_SQUARED 0.41, read-out: LUCIFERASE INFECTION ASSAY - IC50): 4.67 µM
Cc1ccc(-c2cnn3c(N4CCCC4)cc(C)nc23)cc1	9.26	IC50 (PBLUC_HILL_SLOPE 2.02, PBLUC_R_SQUARED 0.442, read-out: LUCIFERASE INFECTION ASSAY - IC50): 3.13 µM
COc1ccc(-c2nc3cnc(Nc4cccc(OC(F)(F)F)c4)cc3n2C)cc1OC	> 10	IC50 (PBLUC_HILL_SLOPE 2.08, PBLUC_R_SQUARED 0.244, read-out: LUCIFERASE INFECTION ASSAY - IC50): > 10 µM
CC(C)c1ccc(/C=C2\CCn3c2nc(=O)c2ccccc23)cc1	> 10.4	IC50 (PBLUC_HILL_SLOPE 2.01, PBLUC_R_SQUARED 0.333, read-out: LUCIFERASE INFECTION ASSAY - IC50): 4.19 µM
Clc1sc2ccccc2c1-c1nnc(SCc2nc3ccccn3c2Br)n1-c1ccccc1	> 10	IC50 (PBLUC_HILL_SLOPE 2.01, PBLUC_R_SQUARED 0.722, read-out: LUCIFERASE INFECTION ASSAY - IC50): 6.1 µM
CCC(=O)Nc1c(-c2nc3ccccc3[nH]2)c(C)c(C)n1C1CCCC1	> 9.42	IC50 (PBLUC_HILL_SLOPE 2, PBLUC_R_SQUARED 0.418, read-out: LUCIFERASE INFECTION ASSAY - IC50): 6.01 µM
c1cc2[nH]c(-c3ccsc3)cc2c(Nc2ccc(N3CCOCC3)cc2)n1	> 10	IC50 (PBLUC_HILL_SLOPE 2.04, PBLUC_R_SQUARED 0.351, read-out: LUCIFERASE INFECTION ASSAY - IC50): 6.37 µM
CC(C)N(C(=O)CSc1nnnn1C)c1ccc(Nc2ccccc2)cc1	> 10	IC50 (PBLUC_HILL_SLOPE 2.1, PBLUC_R_SQUARED 0.364, read-out: LUCIFERASE INFECTION ASSAY - IC50): > 10 µM
Cc1ccc(NC(=O)Cn2ccccc2=O)cc1S(=O)(=O)N1CCCCC1	> 10	IC50 (PBLUC_HILL_SLOPE 1.99, PBLUC_R_SQUARED 0.304, read-out: LUCIFERASE INFECTION ASSAY - IC50): 5.37 µM
CC1CCCCN1CCCNC(=S)Nc1cc(C(F)(F)F)cc(C(F)(F)F)c1 (configuration not stated)	> 7.72	IC50 (PBLUC_HILL_SLOPE 2.02, PBLUC_R_SQUARED 0.36, read-out: LUCIFERASE INFECTION ASSAY - IC50): 3.73 µM
Cc1cc(/C=N/Nc2nncc3ccccc23)c(C)n1-c1ccc(I)cc1	> 10	IC50 (PBLUC_HILL_SLOPE 2.06, PBLUC_R_SQUARED 0.597, read-out: LUCIFERASE INFECTION ASSAY - IC50): 6.98 µM

Compound	IC90 [µM]	other results
O=C(Nc1ncccc1O)c1ccc(-n2ccnc2)cc1	8.71	IC50 (PBLUC_HILL_SLOPE 2.04, 2.50, 2.35, PBLUC_R_SQUARED 0.554, 0.491, 0.399, read-out: LUCIFERASE INFECTION ASSAY - IC50): 3.31 µM
CC(=O)c1c(C)[nH]c(C(=O)OCC(=O)Nc2c(C)nn(-c3ccccc3)c2C)c1C	> 10	IC50 (PBLUC_HILL_SLOPE 2.08, PBLUC_R_SQUARED 0.0451, read-out: LUCIFERASE INFECTION ASSAY - IC50): > 10 µM
CCc1c(C)sc2[nH]c(-c3ccc(C(=O)N4CCN(S(=O)(=O)c5c(Cl)cccc5Cl)CC4)cc3)nc(=O)c12	4.36	IC50 [1]: 1.49 µM
CC(C)N1CCN(c2ccc(-c3cn4c(-c5ccccc5)cnc4cn3)cc2)CC1	> 8.3	IC50 (PBLUC_HILL_SLOPE 2.04, PBLUC_R_SQUARED 0.328, read-out: LUCIFERASE INFECTION ASSAY - IC50): 5.96 µM
Cc1occc1C(=O)NNC(=O)c1csc(-c2ccc(C(C)C)cc2)n1	> 10	IC50 (PBLUC_HILL_SLOPE 2.06, PBLUC_R_SQUARED 0.34, read-out: LUCIFERASE INFECTION ASSAY - IC50): 8.1 µM
COCCNc1ccc(C(=O)NCCN2CCN(c3cccc(C)c3)CC2)cc1[N+](=O)[O-]	> 10	IC50 (PBLUC_HILL_SLOPE 2.05, PBLUC_R_SQUARED 0.556, read-out: LUCIFERASE INFECTION ASSAY - IC50): 6.29 µM
CCn1c2ccccc2c2cc(NC(=O)CN3CCN(Cc4ccc5c(c4)OCO5)CC3)ccc21	> 10	IC50 (PBLUC_HILL_SLOPE 2.07, PBLUC_R_SQUARED 0.0912, read-out: LUCIFERASE INFECTION ASSAY - IC50): 8.08 µM
CN1CCN(c2ccccc2/C=N\Nc2cc(Cl)ccc2Cl)CC1	> 9.08	IC50 (PBLUC_HILL_SLOPE 2.04, PBLUC_R_SQUARED 0.6, read-out: LUCIFERASE INFECTION ASSAY - IC50): 3.92 µM
CSc1nc2c3c(sc2c2nnc(SCCN(C)C)n12)CCCC3	> 8.69	IC50 (PBLUC_HILL_SLOPE 2.05, PBLUC_R_SQUARED 0.263, read-out: LUCIFERASE INFECTION ASSAY - IC50): 5.45 µM
O=S(=O)(CCN1CCC(C(c2ccccc2)c2ccccc2)CC1)c1ccc(F)cc1	5.93	IC50 (PBLUC_HILL_SLOPE 2.04, PBLUC_R_SQUARED 0.498, read-out: LUCIFERASE INFECTION ASSAY - IC50): 2.02 µM
COc1ccc(-c2cnc3cnc(-c4cnn(Cc5ccccc5)c4)cn23)cc1	> 8.65	IC50 (PBLUC_HILL_SLOPE 2.08, PBLUC_R_SQUARED 0.432, read-out: LUCIFERASE INFECTION ASSAY - IC50): 7.68 µM
N#CC(C(=O)COC(=O)c1cc(Br)ccc1O)=C1Nc2ccccc2N1	> 10	IC50 (PBLUC_HILL_SLOPE 2.06, PBLUC_R_SQUARED 0.487, read-out: LUCIFERASE INFECTION ASSAY - IC50): 6.23 µM
O=C(Nc1cccc(-c2nc(-c3cccc(F)c3)cs2)c1)C1CC1	> 10	IC50 (PBLUC_HILL_SLOPE 2.07, PBLUC_R_SQUARED 0.228, read-out: LUCIFERASE INFECTION ASSAY - IC50): 5.44 µM
CSc1cccc(N2C(=O)C=C(C)C2=O)c1	> 14.1	IC50 (PBLUC_HILL_SLOPE 2.08, PBLUC_R_SQUARED 0.24, read-out: LUCIFERASE INFECTION ASSAY - IC50): 13.4 µM
CCN(CC)S(=O)(=O)c1cccc(C(=O)N/N=C(\C)c2cc(Cl)ccc2Cl)c1	> 10	IC50 (PBLUC_HILL_SLOPE 2.08, PBLUC_R_SQUARED 0.0166, read-out: LUCIFERASE INFECTION ASSAY - IC50): 7.74 µM
CC(C)NC(=O)N1CCCC(C(=O)Nc2nc3c(ccc4ccccc43)s2)C1 (configuration not stated)	> 10	IC50 (PBLUC_HILL_SLOPE 2.07, PBLUC_R_SQUARED 0.824, read-out: LUCIFERASE INFECTION ASSAY - IC50): 4.39 µM
CC(C)(C)c1cc(C(=O)Nc2cc(-c3cccs3)nn2-c2ccc(I)cc2)n(Cc2ccccc2)n1	> 5.43	IC50 (PBLUC_HILL_SLOPE 1.99, PBLUC_R_SQUARED 0.0392, read-out: LUCIFERASE INFECTION ASSAY - IC50): 4.11 µM
CN(Cc1nc(N)c2c3c(sc2n1)CCCC3)Cc1cccs1	> 10	IC50 (PBLUC_HILL_SLOPE 2.01, PBLUC_R_SQUARED 0.418, read-out: LUCIFERASE INFECTION ASSAY - IC50): 4.1 µM
O=C(NCCSCc1c(F)cccc1Cl)c1cccs1	> 10	IC50 (PBLUC_HILL_SLOPE 2.01, PBLUC_R_SQUARED 0.48, read-out: LUCIFERASE INFECTION ASSAY - IC50): 3.94 µM
COc1cccc(C2CNC(c3ccc(Cl)cc3)c3[nH]c4ccccc4c32)c1OC (configuration not stated)	5.44	IC50 (PBLUC_HILL_SLOPE 2.02, PBLUC_R_SQUARED 0.709, read-out: LUCIFERASE INFECTION ASSAY - IC50): 1.84 µM
